In ChEMBL document CHEMBL1143494 (Bioorg Med Chem Lett, 2005):
Values belong to the molecule of their own block, whether it stands above or below them.

Legend:
Homo sapiens = organism: Homo sapiens; assay: Ratio of the inhibitory concentration against MMP-2 to that of MMP-13
Collagenase 3 = Collagenase 3 (Homo sapiens, UniProt P45452); assay: Inhibitory concentration against MMP-13
[1] = biological target: 72 kDa type IV collagenase (Homo sapiens, UniProt P08253); assay: Inhibitory concentration against MMP-2
Chain of 72 kDa type IV collagenase (P08253 whole entry): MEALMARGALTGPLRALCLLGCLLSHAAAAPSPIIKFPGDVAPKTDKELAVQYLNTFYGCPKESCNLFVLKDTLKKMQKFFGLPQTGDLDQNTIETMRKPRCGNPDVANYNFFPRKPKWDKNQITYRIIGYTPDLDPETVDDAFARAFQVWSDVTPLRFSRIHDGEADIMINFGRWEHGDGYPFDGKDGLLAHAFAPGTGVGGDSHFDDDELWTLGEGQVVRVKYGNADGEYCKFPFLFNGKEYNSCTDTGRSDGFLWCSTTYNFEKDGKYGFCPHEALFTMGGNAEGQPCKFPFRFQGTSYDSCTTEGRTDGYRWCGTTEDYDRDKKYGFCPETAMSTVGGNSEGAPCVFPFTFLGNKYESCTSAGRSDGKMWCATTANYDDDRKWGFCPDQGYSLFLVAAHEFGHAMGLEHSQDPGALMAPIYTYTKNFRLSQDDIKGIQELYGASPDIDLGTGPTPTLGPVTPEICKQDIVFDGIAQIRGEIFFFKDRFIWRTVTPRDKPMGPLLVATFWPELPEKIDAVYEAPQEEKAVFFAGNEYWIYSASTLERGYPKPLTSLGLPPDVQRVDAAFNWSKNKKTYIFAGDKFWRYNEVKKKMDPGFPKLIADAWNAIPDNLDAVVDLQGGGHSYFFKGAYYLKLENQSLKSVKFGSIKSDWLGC

Matrilysin = biological target: T1, Matrilysin (Homo sapiens, UniProt P09237); assay: Inhibitory concentration against MMP-7
T1 sequence (P09237 whole entry): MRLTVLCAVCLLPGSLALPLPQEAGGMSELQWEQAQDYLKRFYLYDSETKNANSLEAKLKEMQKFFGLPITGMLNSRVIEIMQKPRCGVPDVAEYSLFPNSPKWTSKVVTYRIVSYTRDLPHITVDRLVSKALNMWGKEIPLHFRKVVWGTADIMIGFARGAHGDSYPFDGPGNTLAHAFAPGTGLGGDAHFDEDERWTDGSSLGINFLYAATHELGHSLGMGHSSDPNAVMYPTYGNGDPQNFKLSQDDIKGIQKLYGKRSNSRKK

Stromelysin-1 = Stromelysin-1 (Homo sapiens, UniProt P08254); assay: Inhibitory concentration against MMP-3
Chain of Stromelysin-1 (P08254 whole entry): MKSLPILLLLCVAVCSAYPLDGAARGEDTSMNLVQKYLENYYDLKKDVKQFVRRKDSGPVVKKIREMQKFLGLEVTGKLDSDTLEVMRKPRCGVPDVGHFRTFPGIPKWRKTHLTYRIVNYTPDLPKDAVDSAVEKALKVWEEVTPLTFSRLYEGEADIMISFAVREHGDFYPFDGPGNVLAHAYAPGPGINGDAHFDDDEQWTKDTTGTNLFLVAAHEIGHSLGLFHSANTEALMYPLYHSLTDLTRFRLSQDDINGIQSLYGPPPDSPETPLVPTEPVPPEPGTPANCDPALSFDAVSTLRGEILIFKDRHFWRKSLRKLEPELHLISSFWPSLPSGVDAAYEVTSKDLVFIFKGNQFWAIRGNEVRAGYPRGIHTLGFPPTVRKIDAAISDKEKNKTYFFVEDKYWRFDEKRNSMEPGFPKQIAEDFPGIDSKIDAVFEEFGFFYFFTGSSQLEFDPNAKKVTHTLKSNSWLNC

[2] = biological target: T2, A disintegrin and metalloproteinase with thrombospondin motifs 4 (Homo sapiens, UniProt O75173); assay: Inhibitory concentration against Aggrecanase 1
T2 sequence (O75173 whole entry): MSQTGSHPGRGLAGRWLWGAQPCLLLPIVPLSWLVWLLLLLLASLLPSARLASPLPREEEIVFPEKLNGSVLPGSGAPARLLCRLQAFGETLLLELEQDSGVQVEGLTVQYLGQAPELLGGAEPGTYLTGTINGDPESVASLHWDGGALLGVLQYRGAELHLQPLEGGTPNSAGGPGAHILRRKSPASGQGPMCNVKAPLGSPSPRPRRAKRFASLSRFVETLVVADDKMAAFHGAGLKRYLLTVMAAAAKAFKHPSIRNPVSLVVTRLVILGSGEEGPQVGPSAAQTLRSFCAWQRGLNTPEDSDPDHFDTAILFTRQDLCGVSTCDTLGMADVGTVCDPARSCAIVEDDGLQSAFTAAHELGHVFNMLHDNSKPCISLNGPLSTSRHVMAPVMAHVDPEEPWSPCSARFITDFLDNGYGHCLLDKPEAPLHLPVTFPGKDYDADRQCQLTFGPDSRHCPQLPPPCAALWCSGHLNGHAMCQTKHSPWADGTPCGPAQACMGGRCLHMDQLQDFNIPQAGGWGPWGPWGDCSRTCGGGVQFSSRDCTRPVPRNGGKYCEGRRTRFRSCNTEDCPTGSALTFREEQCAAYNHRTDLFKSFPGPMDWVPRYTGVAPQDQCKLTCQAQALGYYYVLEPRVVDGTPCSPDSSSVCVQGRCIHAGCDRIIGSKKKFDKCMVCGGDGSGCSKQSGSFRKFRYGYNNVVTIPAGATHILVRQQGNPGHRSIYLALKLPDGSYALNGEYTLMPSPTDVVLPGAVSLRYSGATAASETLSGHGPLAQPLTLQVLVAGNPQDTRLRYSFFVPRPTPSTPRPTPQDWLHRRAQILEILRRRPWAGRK

[3] = biological target: Matrix metalloproteinase-14 (Homo sapiens, UniProt P50281)
Description: Inhibitory concentration against MMP-14

[4] = biological target: Matrix metalloproteinase-9 (Homo sapiens) (UniProt P14780); assay: Percent inhibition at 25 uM against MMP-9
Chain of Matrix metalloproteinase-9 (Homo sapiens) (P14780 whole entry, the tested form may be a part): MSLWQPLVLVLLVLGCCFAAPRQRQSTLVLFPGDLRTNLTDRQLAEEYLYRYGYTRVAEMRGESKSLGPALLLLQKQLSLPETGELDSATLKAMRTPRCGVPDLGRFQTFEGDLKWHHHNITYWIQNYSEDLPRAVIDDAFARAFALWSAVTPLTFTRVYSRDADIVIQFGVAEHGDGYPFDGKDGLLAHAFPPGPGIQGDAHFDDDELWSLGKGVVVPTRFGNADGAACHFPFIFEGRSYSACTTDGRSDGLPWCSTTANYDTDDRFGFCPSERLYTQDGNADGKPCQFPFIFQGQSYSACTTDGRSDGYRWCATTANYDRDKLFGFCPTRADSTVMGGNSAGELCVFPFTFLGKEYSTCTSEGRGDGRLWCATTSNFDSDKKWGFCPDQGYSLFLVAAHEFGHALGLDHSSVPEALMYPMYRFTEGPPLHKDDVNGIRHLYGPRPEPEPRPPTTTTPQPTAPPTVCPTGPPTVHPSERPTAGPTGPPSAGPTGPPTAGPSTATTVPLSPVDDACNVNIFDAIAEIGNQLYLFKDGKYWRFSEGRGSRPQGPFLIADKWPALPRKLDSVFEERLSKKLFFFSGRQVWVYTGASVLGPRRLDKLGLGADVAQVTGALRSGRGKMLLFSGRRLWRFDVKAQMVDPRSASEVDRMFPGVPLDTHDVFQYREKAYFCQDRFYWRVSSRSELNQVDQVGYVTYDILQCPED

[5] = biological target: T3, Disintegrin and metalloproteinase domain-containing protein 17 (Homo sapiens, UniProt P78536); assay: Percent inhibition at 25 uM against TACE
T3 sequence (P78536 whole entry, the tested form may be a part): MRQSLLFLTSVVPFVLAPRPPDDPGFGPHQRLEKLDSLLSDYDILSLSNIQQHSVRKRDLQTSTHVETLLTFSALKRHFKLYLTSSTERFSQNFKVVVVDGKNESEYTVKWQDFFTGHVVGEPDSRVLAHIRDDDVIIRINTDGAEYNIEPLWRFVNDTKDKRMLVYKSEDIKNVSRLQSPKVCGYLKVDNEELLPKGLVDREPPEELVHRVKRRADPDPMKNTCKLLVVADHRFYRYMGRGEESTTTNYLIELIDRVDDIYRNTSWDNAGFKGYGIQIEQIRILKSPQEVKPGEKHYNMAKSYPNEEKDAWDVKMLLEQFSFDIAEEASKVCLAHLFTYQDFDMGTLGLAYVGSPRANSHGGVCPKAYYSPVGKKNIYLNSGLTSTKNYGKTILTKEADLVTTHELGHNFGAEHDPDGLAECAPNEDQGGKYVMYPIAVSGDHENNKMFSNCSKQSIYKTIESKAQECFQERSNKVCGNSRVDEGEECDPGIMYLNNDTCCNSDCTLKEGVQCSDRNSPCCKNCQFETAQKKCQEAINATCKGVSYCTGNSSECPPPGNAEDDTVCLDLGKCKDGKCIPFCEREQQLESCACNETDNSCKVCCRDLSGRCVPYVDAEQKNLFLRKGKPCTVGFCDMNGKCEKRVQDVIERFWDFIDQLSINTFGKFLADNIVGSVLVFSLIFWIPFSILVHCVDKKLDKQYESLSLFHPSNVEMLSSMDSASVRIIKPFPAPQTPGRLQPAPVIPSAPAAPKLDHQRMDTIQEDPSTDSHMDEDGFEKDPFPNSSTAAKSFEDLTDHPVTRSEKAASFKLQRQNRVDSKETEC

Neutrophil collagenase = Neutrophil collagenase (Homo sapiens, UniProt P22894); assay: Inhibitory concentration against MMP-8
Chain of Neutrophil collagenase (P22894 whole entry): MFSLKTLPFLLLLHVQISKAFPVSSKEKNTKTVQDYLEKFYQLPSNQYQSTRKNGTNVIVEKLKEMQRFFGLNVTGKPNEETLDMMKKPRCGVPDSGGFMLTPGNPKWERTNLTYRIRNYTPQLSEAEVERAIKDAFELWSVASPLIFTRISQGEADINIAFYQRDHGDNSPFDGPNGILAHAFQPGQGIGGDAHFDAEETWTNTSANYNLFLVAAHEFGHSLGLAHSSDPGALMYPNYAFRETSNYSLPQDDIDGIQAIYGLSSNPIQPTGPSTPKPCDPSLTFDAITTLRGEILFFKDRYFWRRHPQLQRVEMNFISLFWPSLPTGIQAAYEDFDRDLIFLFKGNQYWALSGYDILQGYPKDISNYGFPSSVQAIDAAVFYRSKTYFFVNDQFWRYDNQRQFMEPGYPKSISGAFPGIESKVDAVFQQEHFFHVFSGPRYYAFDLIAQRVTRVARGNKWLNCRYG

Interstitial collagenase = biological target: T4, Interstitial collagenase (Homo sapiens, UniProt P03956); assay: Inhibitory concentration against MMP-1
T4 sequence (P03956 whole entry): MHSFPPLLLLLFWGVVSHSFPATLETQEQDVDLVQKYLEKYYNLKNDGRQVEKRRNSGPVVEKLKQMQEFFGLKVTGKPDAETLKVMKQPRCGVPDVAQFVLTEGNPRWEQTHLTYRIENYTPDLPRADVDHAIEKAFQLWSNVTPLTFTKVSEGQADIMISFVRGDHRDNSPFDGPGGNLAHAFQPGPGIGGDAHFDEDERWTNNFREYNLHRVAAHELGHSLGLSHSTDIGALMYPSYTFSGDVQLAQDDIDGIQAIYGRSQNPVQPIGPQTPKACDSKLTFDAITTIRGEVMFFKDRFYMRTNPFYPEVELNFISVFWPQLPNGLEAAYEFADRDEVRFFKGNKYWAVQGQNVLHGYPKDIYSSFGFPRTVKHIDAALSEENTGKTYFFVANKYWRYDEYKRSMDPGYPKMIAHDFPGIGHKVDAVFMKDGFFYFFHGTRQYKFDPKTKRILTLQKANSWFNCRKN

[6] = biological target: T3, Disintegrin and metalloproteinase domain-containing protein 17; assay: Inhibitory concentration against TACE

SMILES: COc1cccc2oc(C(=O)Nc3ccc(-c4ccc(S(=O)(=O)N[C@H](C(=O)O)C(C)C)cc4)cc3)c(C)c12
Ratio (Homo sapiens): 110

Ratio (Homo sapiens): 32 | IC50 (Collagenase 3): 55 nM
SMILES: CCc1c(C(=O)Nc2ccc(-c3ccc(S(=O)(=O)N[C@H](C(=O)O)C(C)C)cc3)cc2)oc2ccccc12

Ratio (Homo sapiens): 1 | IC50 (Collagenase 3): 0.61 nM
SMILES: CC(C)[C@H](NS(=O)(=O)c1ccc(-c2ccc(NC(=O)c3cc4cc(Br)ccc4o3)cc2)cc1)C(=O)O

Ratio (Homo sapiens): 18 | IC50 [1]: 7.1 nM | IC50 (Collagenase 3): 0.4 nM
SMILES: COc1c(Br)ccc2oc(C(=O)Nc3ccc(-c4ccc(S(=O)(=O)N[C@H](C(=O)O)C(C)C)cc4)cc3)cc12

SMILES: COc1c(C)ccc2oc(C(=O)Nc3ccc(-c4ccc(S(=O)(=O)N[C@H](C(=O)O)C(C)C)cc4)cc3)c(C)c12
IC50 (Matrilysin): 534 nM | Ratio (Homo sapiens): 330 | IC50 (Stromelysin-1): 442 nM | IC50 [2]: 8600 nM | IC50 [3]: 15000 nM | inhibition [4]: 76% | inhibition [5]: 39% | IC50 (Neutrophil collagenase): 52 nM | IC50 (Interstitial collagenase): 37100 nM

Ratio (Homo sapiens): 6 | IC50 [1]: 1200 nM
SMILES: CC(C)[C@H](NS(=O)(=O)c1ccc(-c2ccc(NC(=O)c3oc4ccccc4c3-c3ccccc3)cc2)cc1)C(=O)O

Ratio (Homo sapiens): 785
SMILES: COc1c(Cl)ccc2oc(C(=O)Nc3ccc(-c4ccc(S(=O)(=O)N[C@H](C(=O)O)C(C)C)cc4)cc3)c(C)c12

SMILES: COc1c(Br)ccc2oc(C(=O)Nc3ccc(-c4ccc(S(=O)(=O)N[C@@H](C(=O)O)C(C)C)cc4)cc3)c(C)c12
Ratio (Homo sapiens): 202 | IC50 [1]: 688 nM | IC50 (Collagenase 3): 3.4 nM

SMILES: CCc1ccc2oc(C(=O)Nc3ccc(-c4ccc(S(=O)(=O)N[C@H](C(=O)O)C(C)C)cc4)cc3)c(C)c2c1O
IC50 (Matrilysin): 458 nM | Ratio (Homo sapiens): 250 | IC50 (Stromelysin-1): 492 nM | IC50 [2]: 4400 nM | IC50 [3]: 15800 nM | inhibition [4]: 55% | inhibition [5]: 42% | IC50 (Neutrophil collagenase): 94 nM | IC50 (Interstitial collagenase): 23400 nM

Ratio (Homo sapiens): 260
SMILES: CCc1ccc2oc(C(=O)Nc3ccc(-c4ccc(S(=O)(=O)N[C@H](C(=O)O)C(C)C)cc4)cc3)c(C)c2c1OC(C)C

Ratio (Homo sapiens): 7
SMILES: COc1cccc2oc(C(=O)Nc3ccc(-c4ccc(S(=O)(=O)N[C@H](C(=O)O)C(C)C)cc4)cc3)cc12

IC50 [1]: 4.6 nM
SMILES: CC(C)[C@@H](NS(=O)(=O)c1ccc(-c2ccc(NC(=O)c3cc4ccccc4o3)cc2)cc1)C(=O)O

SMILES: CCc1ccc2oc(C(=O)Nc3ccc(-c4ccc(S(=O)(=O)N[C@H](C(=O)O)C(C)C)cc4)cc3)c(C)c2c1OC
IC50 (Matrilysin): 1260 nM | Ratio (Homo sapiens): 660 | IC50 (Stromelysin-1): 561 nM | IC50 [2]: > 15000 nM | IC50 [3]: 30000 nM | inhibition [4]: 64% | inhibition [5]: 43% | IC50 (Neutrophil collagenase): 101 nM | IC50 (Interstitial collagenase): 28000 nM

SMILES: COc1c(I)ccc2oc(C(=O)Nc3ccc(-c4ccc(S(=O)(=O)N[C@H](C(=O)O)C(C)C)cc4)cc3)c(C)c12
IC50 (Matrilysin): 3010 nM | Ratio (Homo sapiens): 650 | IC50 (Stromelysin-1): 1060 nM | IC50 [2]: 15000 nM | IC50 [3]: 30000 nM | inhibition [4]: 51% | inhibition [5]: 38% | IC50 (Neutrophil collagenase): 404 nM | IC50 (Interstitial collagenase): 60000 nM

SMILES: Cc1c(C(=O)Nc2ccc(-c3ccc(S(=O)(=O)N[C@H](C(=O)O)C(C)C)cc3)cc2)oc2ccc(Cl)c(OC(C)C)c12
IC50 (Matrilysin): 1640 nM | Ratio (Homo sapiens): 275 | IC50 (Stromelysin-1): 1090 nM | IC50 [2]: 14300 nM | IC50 [3]: 50000 nM | inhibition [4]: 51% | inhibition [5]: 98% | IC50 (Neutrophil collagenase): 110 nM | IC50 (Interstitial collagenase): 37100 nM

Ratio (Homo sapiens): 175
SMILES: COc1c(C#N)ccc2oc(C(=O)Nc3ccc(-c4ccc(S(=O)(=O)N[C@H](C(=O)O)C(C)C)cc4)cc3)c(C)c12

Ratio (Homo sapiens): 180 | IC50 [1]: 1410 nM | IC50 (Collagenase 3): 7.8 nM
SMILES: COc1c(CO)ccc2oc(C(=O)Nc3ccc(-c4ccc(S(=O)(=O)N[C@H](C(=O)O)C(C)C)cc4)cc3)c(C)c12

SMILES: COc1c(Br)ccc2oc(C(=O)Nc3ccc(-c4ccc(S(=O)(=O)N[C@H](C(=O)O)C(C)C)cc4)cc3)c(C)c12
IC50 [6]: 34000 nM | IC50 (Matrilysin): 866 nM | Ratio (Homo sapiens): 740 | IC50 (Stromelysin-1): 144 nM | IC50 [2]: 5600 nM | IC50 [3]: 15000 nM | inhibition [4]: 66% | IC50 (Neutrophil collagenase): 73 nM

SMILES: Cc1c(C(=O)Nc2ccc(-c3ccc(S(=O)(=O)N[C@H](C(=O)O)C(C)C)cc3)cc2)oc2ccc(Br)cc12
Ratio (Homo sapiens): 27

SMILES: Cc1c(C(=O)Nc2ccc(-c3ccc(S(=O)(=O)N[C@@H](C(=O)O)C(C)C)cc3)cc2)oc2ccccc12
Ratio (Homo sapiens): 10 | IC50 [1]: 164 nM | IC50 (Collagenase 3): 17 nM

Ratio (Homo sapiens): 20
SMILES: CC(=O)c1ccc2oc(C(=O)Nc3ccc(-c4ccc(S(=O)(=O)N[C@H](C(=O)O)C(C)C)cc4)cc3)c(C)c2c1O

SMILES: Cc1c(C(=O)Nc2ccc(-c3ccc(S(=O)(=O)N[C@H](C(=O)O)C(C)C)cc3)cc2)oc2ccccc12
Ratio (Homo sapiens): 44

Ratio (Homo sapiens): 65
SMILES: CCc1ccc2oc(C(=O)Nc3ccc(-c4ccc(S(=O)(=O)N[C@H](C(=O)O)C(C)C)cc4)cc3)c(C)c2c1OCc1ccccc1
